Test results from ChEMBL document CHEMBL6134881, “From Natural Products to Small Molecules: Recent Advancements in Anti-MRSA Therapeutics” (ACS Med Chem Lett, 2025).
Values after ≈ are worked out from the molar mass of the structure shown.

Experiments:
[1] = test system: Staphylococcus aureus; assay: Antibacterial activity against methicillin-resistant Staphylococcus aureus ATCC 33591; format: functional
[2] = test system: Staphylococcus aureus; assay: Antibacterial activity against methicllin-resistant Staphylococcus aureus; format: functional
[3] = test system: Staphylococcus aureus; assay: Antibacterial activity against […] Staphylococcus aureus ATCC 29213 assessed as reduction in bacterial growth incubated for 16 to 18 hrs by CLSI protocol based Muller Hinton broth assay; format: functional; conditions: time 16-18 hrs
[4] = test system: Staphylococcus aureus; assay: Antibacterial activity against methicillin-resistant Staphylococcus aureus ATCC 43300 assessed as reduction in bacterial growth incubated for 18 hrs by mueller hinton broth dilution method; format: functional
[5] = test system: HepG2; assay: Cytotoxicity against human HepG2 cells assessed as reduction in cell viability by measuring lethal concentration by SRB assay; format: functional; conditions: read-out: LC50 (the source's name)
[6] = Solubility of compound; format: physicochemical
[7] = test system: Staphylococcus aureus; assay: Antibacterial activity against Staphylococcus aureus assessed as reduction in bacterial growth; format: functional
[8] = test system: Staphylococcus aureus; assay: Antibacterial activity against methicillin-resistant Staphylococcus aureus ATCC 33591 assessed as inhibition of bacterial growth incubated for 24 hrs by Mueller-Hinton broth assay; format: functional
[9] = test system: Staphylococcus aureus; assay: Antibacterial activity against Staphylococcus aureus ATCC 25923 assessed as reduction in bacterial growth incubated for 24 hrs by broth micro-dilution method; format: functional

CNC(=O)c1cc(Oc2ccc(NC(=O)Nc3cccc(C(F)(F)F)c3)cc2)ccn1
MIC [1]: > 100 µM

O=C(O)c1c(Sc2ccccc2)c2cc(Cl)ccc2n1Cc1ccc(Cl)cc1
MIC [1]: 1 µM (≈ 0.428 µg/mL)

O=C(Nc1ccc2c(c1)OC(F)(F)O2)Nc1ccc(Cl)c(C(F)(F)F)c1
MIC [1]: 0.3 µM (≈ 0.118 µg/mL)

CCCn1c2ccccc2c2c(OCC(O)CCC=C(C)C)cccc21 (configuration not stated)
MIC [2]: 50 mg/L (≈ 142 µM)

CC(C)=CCCC(O)COc1cccc2c1c1ccccc1n2C (configuration not stated)
MIC [2]: > 50 mg/L

CC[C@H]1C[C@@H](OC(=O)CS[C@@H]2CC[C@@H](N)C[C@H]2O)[C@]2(C)[C@H](C)C[C@]3(CCC(=O)[C@H]32)[C@@H](C)[C@@H]1O
MIC [3]: > 16 mg/L

C[C@@H]1[C@@H](O)[C@H](C)[C@]23CCC(=O)[C@H]2[C@@](C)([C@H](C)CC3)[C@@H]1OC(=O)CS[C@@H]1CC[C@@H](N)C[C@H]1O
MIC [3]: > 32 mg/L

CCCCCn1c2ccccc2c2c(OCC(O)CCC=C(C)C)cccc21 (configuration not stated)
MIC [2]: 6.25 mg/L (≈ 16.5 µM)

CC[N+](CC)=c1sc2c(s1)C(c1ccc(Cl)cc1)Oc1ccc(C)cc1-2.F[B-](F)(F)F (configuration not stated)
MIC [4]: 3.9 mg/L

CC(C)=CCCC(O)COc1cccc2c1c1ccccc1n2CC=C(C)C (configuration not stated)
MIC [2]: 3.13 mg/L (≈ 8.3 µM)

CCCCCCCn1c2ccccc2c2c(OCC(O)CCC=C(C)C)cccc21 (configuration not stated)
MIC [2]: 12.5 mg/L (≈ 30.7 µM)

CC[C@@]1(C)C[C@@H](OC(=O)CSc2ccncc2)[C@]2(C)[C@H](C)CC[C@]3(CCC(=O)[C@H]32)[C@@H](C)[C@@H]1O
MIC [3]: 0.06 mg/L (≈ 0.127 µM)

CCCCCCCCCn1c2ccccc2c2c(OCC(O)CCC=C(C)C)cccc21 (configuration not stated)
MIC [2]: 6.25 mg/L (≈ 14.3 µM)

CNC(=O)c1cc(Oc2ccc(NC(=O)Nc3ccc(Cl)c(C)c3)cc2)ccn1
MIC [1]: > 100 µM

OCc1ccc2cc(-c3ccc(O)c(C45CC6CC(CC(C6)C4)C5)c3)ccc2c1
MIC [4]: 2 mg/L (≈ 5.2 µM)
CC50 [5]: > 32 mg/L

Cn1cc(-c2ccc(Cn3cnc4c(N5CCNCC5)ncnc43)nc2)nn1
solubility [6]: 114 µM (≈ 42.9 µg/mL)
MIC [7]: 0.12 mg/L (≈ 0.319 µM)

CC[N+](CC)=c1sc2c(s1)C(c1ccc(Br)cc1)Oc1ccc(C)cc1-2.F[B-](F)(F)F (configuration not stated)
MIC [4]: 1.95 mg/L

Cn1cc(-c2ccc(Cn3cnc4c(N)ncnc43)cc2)nn1
MIC [7]: 16.6 mg/L (≈ 54.3 µM)

CC[N+](CC)=c1sc2c(s1)C(c1ccc(F)cc1)Oc1ccc(C)cc1-2.F[B-](F)(F)F (configuration not stated)
MIC [4]: 16.6 mg/L

CNC(=O)c1cc(Oc2ccc(NC(=O)Nc3ccccc3)cc2)ccn1
MIC [1]: > 100 µM

C[C@@H]1CC[C@@]23CCC(=O)[C@H]2[C@]1(C)[C@H](OC(=O)CSc1ccncc1)CC(=O)[C@@H](O)[C@@H]3C
MIC [3]: > 16 mg/L

Cn1cc(-c2ccc(Cn3cnc4c(N5CCNCC5)ncnc43)cc2)nn1
solubility [6]: 31 µM (≈ 11.6 µg/mL)
MIC [7]: 0.25 mg/L (≈ 0.666 µM)

CCC(c1ccc(O)cc1)C(CC)c1ccc(O)cc1 (configuration not stated)
MIC [1]: 16 µM (≈ 4.33 µg/mL)

O=C(O)/C=C/c1ccc(-c2ccc(O)c(C34CC5CC(CC(C5)C3)C4)c2)cc1 [ADAROTENE]
MIC [4]: 2 mg/L (≈ 5.34 µM)

Oc1c(Cl)cc(Cl)cc1Sc1cc(Cl)cc(Cl)c1O [BITHIONOL]
MIC [1]: 0.5 µM (≈ 0.178 µg/mL)

C=CCc1ccc(O)c(-c2ccc(O)c(CC=C)c2)c1 [HONOKIOL]
MIC [8]: 10 mg/L (≈ 37.5 µM)

C=C[C@]1(C)C[C@@H](OC(=O)CS[C@@H]2CC[C@@H](N)C[C@H]2O)[C@]2(C)[C@H](C)CC[C@]3(CCC(=O)[C@H]32)[C@@H](C)[C@@H]1O [LEFAMULIN]
MIC [9]: 0.12 mg/L (≈ 0.236 µM)

C=CCc1ccc(O)c(-c2cc(CC=C)ccc2O)c1 [MAGNOLOL]
MIC [8]: 20 mg/L (≈ 75.1 µM)

O=C(O)c1ccc2cc(-c3ccc(O)c(C45CC6CC(CC(C6)C4)C5)c3)ccc2c1 [O-DEMETHYLATED ADAPALENE]
MIC [4]: 1 mg/L (≈ 2.51 µM)
CC50 [5]: 5 mg/L (≈ 12.5 µM)

C=C[C@]1(C)C[C@@H](OC(=O)CS[C@@H]2C[C@H]3CC[C@@H](C2)N3C)[C@]2(C)[C@H](C)CC[C@]3(CCC(=O)[C@H]32)[C@@H](C)[C@@H]1O [RETAPAMULIN]
MIC [9]: 0.25 mg/L (≈ 0.483 µM)

CNC(=O)c1cc(Oc2ccc(NC(=O)Nc3ccc(Cl)c(C(F)(F)F)c3)cc2)ccn1 [SORAFENIB]
MIC [1]: 3 µM (≈ 1.39 µg/mL)

C=C[C@]1(C)C[C@@H](OC(=O)CSCCN(CC)CC)[C@]2(C)[C@H](C)CC[C@]3(CCC(=O)[C@H]32)[C@@H](C)[C@@H]1O [TIAMULIN]
MIC [9]: 0.25 mg/L (≈ 0.506 µM)

C=C[C@]1(C)C[C@@H](OC(=O)CSC(C)(C)CNC(=O)[C@H](N)C(C)C)[C@]2(C)[C@H](C)CC[C@]3(CCC(=O)[C@H]32)[C@@H](C)[C@@H]1O [VALNEMULIN]
MIC [9]: 0.06 mg/L (≈ 0.106 µM)
